According to patent publication US12083124B2 (Incyte Corporation, priority 2019, dated 2024):
Read-outs that look alike come from different tables or passages of the source.

Experiments:
[1] = biological target: wild-type un-phosphorylated FGFR1 (Homo sapiens, UniProt P11362); experiment: FGFR Enzymatic Assay (FRET peptide phosphorylation), FGFR1; conditions: pre-incubated for 4 hours
Method: The inhibitor potency of the exemplified compounds was determined in an enzyme discontinuous assay that measures peptide phosphorylation using FRET measurements to detect product formation. Inhibitors were serially diluted in DMSO and a volume of 0.2 μL was transferred to the wells of a 384-well plate. […] Appropriate controls (enzyme blank and enzyme with no inhibitor) were included on the plate. […] The 10 μL/well reaction concentration of the peptide substrate was 500 nM whereas the ATP concentration was maintained near or below the ATP Km. The ATP Km values were pre-determined in a separate series of experiments. The reaction plate was incubated at 25° C. for 1 hr and the reactions were ended with the addition of 5 μL/well of quench solution (50 mM Tris, 150 mM NaCl, 0.5 mg/mL BSA, pH 7.8; 45 mM EDTA, 600 nM staurosporin, with Perkin Elmer Lance Reagents at 3.75 nM Eu-antibody PY20 and 180 nM APC-Streptavidin). The plate was allowed to equilibrate for ˜10 minutes at ambient temperature before scanning on a PheraStar plate reader (BMG Labtech) instrument.
Either GraphPad prism or XLfit was used to analyze the data. The IC50 values were derived by fitting the data to a four parameter logistic equation producing a sigmoidal dose-response curve with a variable Hill coefficient. Prism equation: Y=Bottom+(Top-Bottom)/(1+10^((Log IC50-X)*Hill slope)); XLfit equation: Y=(A+((B−A)/(1+((X/C)^D)))) where X is the logarithm of inhibitor concentration and Y is the response.
GraphPad prism3 was used to analyze the data. The IC50 values were derived by fitting the data to the equation for a sigmoidal dose-response with a variable slope. Y=Bottom+(Top-Bottom)/(1+10^((Log IC50-X)*Hill Slope)) where X is the logarithm of concentration and Y is the response.
The data in Table 1 was measured in wild-type un-phosphorylated FGFR1, FGFR2, FGFR3, and FGFR4 proteins.

[2] = biological target: wild-type un-phosphorylated FGFR3 (Homo sapiens, UniProt P22607); experiment: FGFR Enzymatic Assay (FRET peptide phosphorylation), FGFR3
[3] = biological target: wild-type un-phosphorylated FGFR2 (Homo sapiens, UniProt P21802); experiment: FGFR Enzymatic Assay (FRET peptide phosphorylation), FGFR2
[4] = FGFR1, wild-type un-phosphorylated FGFR1
[5] = read-out: FGFR3, wild-type un-phosphorylated FGFR3, pre-incubated for 4 hours
[6] = read-out: FGFR1, wild-type un-phosphorylated FGFR1
[7] = read-out: FGFR2, wild-type un-phosphorylated FGFR2, pre-incubated for 4 hours

Sequence of wild-type un-phosphorylated FGFR3 (P22607 23-806): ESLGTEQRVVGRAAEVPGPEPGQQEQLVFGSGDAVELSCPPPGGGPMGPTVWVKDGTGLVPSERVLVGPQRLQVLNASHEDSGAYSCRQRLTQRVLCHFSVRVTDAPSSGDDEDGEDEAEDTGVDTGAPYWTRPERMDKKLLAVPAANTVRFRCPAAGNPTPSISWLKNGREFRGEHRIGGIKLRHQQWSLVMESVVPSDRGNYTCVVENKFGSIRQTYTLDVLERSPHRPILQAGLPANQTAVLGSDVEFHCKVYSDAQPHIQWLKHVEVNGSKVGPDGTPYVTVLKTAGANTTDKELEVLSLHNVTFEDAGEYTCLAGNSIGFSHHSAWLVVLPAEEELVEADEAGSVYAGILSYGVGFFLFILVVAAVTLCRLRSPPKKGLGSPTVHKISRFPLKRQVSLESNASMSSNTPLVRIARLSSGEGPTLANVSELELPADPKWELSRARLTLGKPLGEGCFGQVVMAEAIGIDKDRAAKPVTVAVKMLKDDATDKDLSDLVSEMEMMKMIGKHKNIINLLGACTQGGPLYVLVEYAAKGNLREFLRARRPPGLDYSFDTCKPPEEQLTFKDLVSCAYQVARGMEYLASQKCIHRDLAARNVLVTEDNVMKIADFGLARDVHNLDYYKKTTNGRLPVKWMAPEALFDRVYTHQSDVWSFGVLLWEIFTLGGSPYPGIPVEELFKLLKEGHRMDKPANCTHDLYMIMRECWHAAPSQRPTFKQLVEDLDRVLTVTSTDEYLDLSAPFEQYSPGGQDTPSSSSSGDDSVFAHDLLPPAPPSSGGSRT
Sequence of wild-type un-phosphorylated FGFR2 (P21802 22-821): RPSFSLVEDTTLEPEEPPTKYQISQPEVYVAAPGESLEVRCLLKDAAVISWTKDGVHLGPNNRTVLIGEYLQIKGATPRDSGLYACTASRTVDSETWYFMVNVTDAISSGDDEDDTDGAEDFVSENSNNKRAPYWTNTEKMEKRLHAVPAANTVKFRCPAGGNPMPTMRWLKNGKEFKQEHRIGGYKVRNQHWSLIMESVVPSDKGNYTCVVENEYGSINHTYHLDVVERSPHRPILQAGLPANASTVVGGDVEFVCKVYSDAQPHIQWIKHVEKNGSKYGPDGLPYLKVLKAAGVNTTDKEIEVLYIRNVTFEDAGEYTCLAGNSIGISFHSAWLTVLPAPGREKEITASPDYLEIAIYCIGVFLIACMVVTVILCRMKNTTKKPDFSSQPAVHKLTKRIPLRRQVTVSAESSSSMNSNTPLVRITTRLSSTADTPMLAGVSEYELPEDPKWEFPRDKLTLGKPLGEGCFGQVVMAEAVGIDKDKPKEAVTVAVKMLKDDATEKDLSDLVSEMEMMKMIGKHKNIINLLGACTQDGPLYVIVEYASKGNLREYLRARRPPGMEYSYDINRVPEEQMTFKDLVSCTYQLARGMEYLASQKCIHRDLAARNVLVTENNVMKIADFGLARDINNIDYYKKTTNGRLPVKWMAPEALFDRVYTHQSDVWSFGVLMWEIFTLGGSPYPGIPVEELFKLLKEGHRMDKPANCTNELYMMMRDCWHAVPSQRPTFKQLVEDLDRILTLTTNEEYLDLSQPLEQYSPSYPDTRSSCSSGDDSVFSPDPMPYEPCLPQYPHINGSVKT
Sequence of wild-type un-phosphorylated FGFR1 (P11362 22-822): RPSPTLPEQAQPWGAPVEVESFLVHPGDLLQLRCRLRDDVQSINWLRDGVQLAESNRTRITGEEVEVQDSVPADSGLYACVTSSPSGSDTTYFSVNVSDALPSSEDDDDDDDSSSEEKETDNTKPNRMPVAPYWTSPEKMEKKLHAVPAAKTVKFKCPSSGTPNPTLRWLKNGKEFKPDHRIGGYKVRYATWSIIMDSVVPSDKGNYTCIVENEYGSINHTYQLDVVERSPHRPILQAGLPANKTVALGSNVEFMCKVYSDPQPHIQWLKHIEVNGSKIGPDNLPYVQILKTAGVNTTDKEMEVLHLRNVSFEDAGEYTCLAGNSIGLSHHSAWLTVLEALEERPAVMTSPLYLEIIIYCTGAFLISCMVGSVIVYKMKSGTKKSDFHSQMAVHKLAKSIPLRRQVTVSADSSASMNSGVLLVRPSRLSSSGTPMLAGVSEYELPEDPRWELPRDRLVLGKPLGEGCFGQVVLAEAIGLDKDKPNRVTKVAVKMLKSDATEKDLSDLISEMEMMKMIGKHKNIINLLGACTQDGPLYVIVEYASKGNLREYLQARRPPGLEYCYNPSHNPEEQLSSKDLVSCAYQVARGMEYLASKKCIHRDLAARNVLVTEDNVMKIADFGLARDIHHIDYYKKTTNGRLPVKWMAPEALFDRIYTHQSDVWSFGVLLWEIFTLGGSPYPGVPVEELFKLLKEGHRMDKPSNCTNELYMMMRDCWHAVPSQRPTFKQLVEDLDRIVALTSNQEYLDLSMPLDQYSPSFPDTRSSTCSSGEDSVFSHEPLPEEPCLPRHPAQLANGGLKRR

| IC50 [1, 4] | IC50 [2] | IC50 [2, 5] | IC50 [3] | IC50 [1, 6] | IC50 [3, 7] | Compound |
| --- | --- | --- | --- | --- | --- | --- |
| 40 to 100 nM | < 6 nM |  |  |  |  | COc1cc2[nH]nc(-c3cnn(C)c3)c2nc1-c1cccc2c1CCC2O (single isomer, unassigned) [Example 7, 4-(6-Methoxy-3-(1-methyl-1H-pyrazol-4-yl)-1H-pyrazolo[4,3-b]pyridin-5-yl)-2,3-dihydro-1H-inden-1-ol] |
| > 100 nM |  | < 6 nM |  |  |  | COc1cc2[nH]nc(-c3cnn(C)c3)c2nc1-c1cccc2c1CCC2O (single isomer, unassigned) [Example 8, 4-(6-Methoxy-3-(1-methyl-1H-pyrazol-4-yl)-1H-pyrazolo[4,3-b]pyridin-5-yl)-2,3-dihydro-1H-inden-1-ol] |
| 40 to 100 nM | < 6 nM |  | < 6 nM |  |  | COc1cc2[nH]nc(-c3cnn(C)c3)c2nc1-c1cccc2c1CCC2CO (single isomer, unassigned) [Example 11, (4-(6-Methoxy-3-(1-methyl-1H-pyrazol-4-yl)-1H-pyrazolo[4,3-b]pyridin-5-yl)-2,3-dihydro-1H-inden-1-yl)methanol] |
|  |  | < 6 nM |  | 40 to 100 nM | < 6 nM | COc1cc2[nH]nc(-c3cnn(C)c3)c2nc1-c1cccc2c1CCC2CO (single isomer, unassigned) [Example 12, (4-(6-Methoxy-3-(1-methyl-1H-pyrazol-4-yl)-1H-pyrazolo[4,3-b]pyridin-5-yl)-2,3-dihydro-1H-inden-1-yl)methanol] |
| 40 to 100 nM | < 6 nM |  |  |  | 6 to 40 nM | Cn1cc(-c2n[nH]c3cc(Cl)c(-c4cccc5c4CC(O)C5)nc23)cn1 (single isomer, unassigned) [Example 39, 4-(6-Chloro-3-(1-methyl-1H-pyrazol-4-yl)-1H-pyrazolo[4,3-b]pyridin-5-yl)-2,3-dihydro-1H-inden-2-ol] |
| 40 to 100 nM | < 6 nM |  |  |  | 6 to 40 nM | COc1cc2[nH]nc(-c3ccc(OC4CCOC4)nc3)c2nc1-c1cccc2c1CC(O)C2 (single isomer, unassigned) [Example 73, 4-(6-Methoxy-3-(6-((tetrahydrofuran-3-yl)oxy)pyridin-3-yl)-1H-pyrazolo[4,3-b]pyridin-5-yl)-2,3-dihydro-1H-inden-2-ol] |
|  | < 6 nM |  | < 6 nM | 6 to 40 nM |  | COc1cc2[nH]nc(-c3ccc(C4CC(=O)N(C)C4)nc3)c2nc1-c1cccc2c1CCC2C#N (single isomer, unassigned) [Example 75, 4-(6-Methoxy-3-(6-(1-methyl-5-oxopyrrolidin-3-yl)pyridin-3-yl)-1H-pyrazolo[4,3-b]pyridin-5-yl)-2,3-dihydro-1H-indene-1-carbonitrile] |
|  |  | < 6 nM |  | 6 to 40 nM | < 6 nM | COc1cc2[nH]nc(-c3ccc(C4CC(=O)N(C)C4)nc3)c2nc1-c1cccc2c1CCC2C#N (single isomer, unassigned) [Example 76, 4-(6-Methoxy-3-(6-(1-methyl-5-oxopyrrolidin-3-yl)pyridin-3-yl)-1H-pyrazolo[4,3-b]pyridin-5-yl)-2,3-dihydro-1H-indene-1-carbonitrile] |
|  | < 6 nM |  | < 6 nM | 6 to 40 nM |  | COc1cc2[nH]nc(-c3ccc(C4CCN(C(=O)[C@H](C)O)CC4)nc3)c2nc1-c1cccc2c1CC(F)C2 (single isomer, unassigned) [Example 81] |
| 40 to 100 nM | < 6 nM |  |  |  |  | COc1cc2[nH]nc(-c3cnn(C)c3)c2nc1-c1cccc2c1CCC2C#N (stereo not drawn) [Example 9, 4-(6-Methoxy-3-(1-methyl-1H-pyrazol-4-yl)-1H-pyrazolo[4,3-b]pyridin-5-yl)-2,3-dihydro-1H-indene-1-carbonitrile] |
| > 100 nM | < 6 nM |  |  |  |  | COc1cc2[nH]nc(-c3cnn(C)c3)c2nc1-c1cccc2c1C[C@H](F)[C@@H]2O [Example 13, 2-Fluoro-4-(6-methoxy-3-(1-methyl-1H-pyrazol-4-yl)-1H-pyrazolo[4,3-b]pyridin-5-yl)-2,3-dihydro-1H-inden-1-ol] |
| 40 to 100 nM | < 6 nM |  |  |  |  | COc1cc2[nH]nc(-c3cnn(C4CCNC4)c3)c2nc1-c1cccc2c1CCC2 (stereo not drawn) [Example 14, 5-(2,3-Dihydro-1H-inden-4-yl)-6-methoxy-3-(1-(pyrrolidin-3-yl)-1H-pyrazol-4-yl)-1H-pyrazolo[4,3-b]pyridine] |
| 40 to 100 nM | < 6 nM |  |  |  |  | CCN1CCC(n2cc(-c3n[nH]c4cc(OC)c(-c5cccc6c5CCC6)nc34)cn2)C1 (stereo not drawn) [Example 15, 5-(2,3-Dihydro-1H-inden-4-yl)-3-(1-(1-ethylpyrrolidin-3-yl)-1H-pyrazol-4-yl)-6-methoxy-1H-pyrazolo[4,3-b]pyridine] |
| > 100 nM | < 6 nM |  |  |  |  | CCOc1cc2[nH]nc(-c3cnn(C)c3)c2nc1-c1cccc2c1CCC2 [Example 26, 5-(2,3-Dihydro-1H-inden-4-yl)-6-ethoxy-3-(1-methyl-1H-pyrazol-4-yl)-1H-pyrazolo[4,3-b]pyridine] |
| > 100 nM | < 6 nM |  |  |  |  | COc1cc2[nH]nc(-c3cnn(-c4ccncc4)c3)c2nc1-c1cccc2c1CCC2 [Example 32, 5-(2,3-Dihydro-1H-inden-4-yl)-6-methoxy-3-(1-(pyridin-4-yl)-1H-pyrazol-4-yl)-1H-pyrazolo[4,3-b]pyridine] |
| 40 to 100 nM | < 6 nM |  |  |  |  | Cn1cc(-c2n[nH]c3cc(C(F)F)c(-c4cccc5c4CCC5)nc23)cn1 [Example 35, 6-(Difluoromethyl)-5-(2,3-dihydro-1H-inden-4-yl)-3-(1-methyl-1H-pyrazol-4-yl)-1H-pyrazolo[4,3-b]pyridine] |
| > 100 nM | < 6 nM |  |  |  |  | CNc1cc2[nH]nc(-c3cnn(C)c3)c2nc1-c1cccc2c1CCC2 [Example 37, 5-(2,3-Dihydro-1H-inden-4-yl)-N-methyl-3-(1-methyl-1H-pyrazol-4-yl)-1H-pyrazolo[4,3-b]pyridin-6-amine] |
| 40 to 100 nM | < 6 nM |  |  |  |  | COc1cc2[nH]nc(-c3ccc(N4CCN(C)[C@H](C)C4)nc3)c2nc1-c1cccc(C)c1C [Example 47, (R)-5-(2,3-Dimethylphenyl)-3-(6-(3,4-dimethylpiperazin-1-yl)pyridin-3-yl)-6-methoxy-1H-pyrazolo[4,3-b]pyridine] |
| 40 to 100 nM | < 6 nM |  |  |  |  | COc1cc2[nH]nc(-c3ccc(N4C[C@@H]5C[C@H]4CN5C)nc3)c2nc1-c1cccc(C)c1C [Example 49, 5-(2,3-Dimethylphenyl)-6-methoxy-3-(6-((1S,4S)-5-methyl-2,5-diazabicyclo[2.2.1]heptan-2-yl)pyridin-3-yl)-1H-pyrazolo[4,3-b]pyridine] |
| 40 to 100 nM | < 6 nM |  |  |  |  | COc1cc2[nH]nc(-c3cnn([C@H]4CC[C@@H](NC(C)=O)CC4)c3)c2nc1-c1cccc2c1CCC2 [Example 53, N-((cis)-4-(4-(5-(2,3-Dihydro-1H-inden-4-yl)-6-methoxy-1H-pyrazolo[4,3-b]pyridin-3-yl)-1H-pyrazol-1-yl)cyclohexyl)acetamide] |
| 40 to 100 nM | < 6 nM |  |  |  |  | COc1cc2[nH]nc(-c3ccc(N4CCN(C)CC4C)nc3)c2nc1-c1cccc2c1CCC2 (stereo not drawn) [Example 54, 5-(2,3-Dihydro-1H-inden-4-yl)-3-(6-(2,4-dimethylpiperazin-1-yl)pyridin-3-yl)-6-methoxy-1H-pyrazolo[4,3-b]pyridine] |
| > 100 nM | < 6 nM |  |  |  |  | COc1cc2[nH]nc(-c3ccc(N4CCN(C(C)=O)CC4)nc3)c2nc1-c1cccc(CC#N)c1C [Example 55, 2-(3-(3-(6-(4-Acetylpiperazin-1-yl)pyridin-3-yl)-6-methoxy-1H-pyrazolo[4,3-b]pyridin-5-yl)-2-methylphenyl)acetonitrile] |
|  | < 6 nM |  |  | 6 to 40 nM |  | COc1cc2[nH]nc(-c3ccc(N4CCN(C(C)=O)CC4)nc3)c2nc1-c1cccc2c1CCC2 [Example 64, 1-(4-(5-(5-(2,3-Dihydro-1H-inden-4-yl)-6-methoxy-1H-pyrazolo[4,3-b]pyridin-3-yl)pyridin-2-yl)piperazin-1-yl)ethan-1-one] |
| > 100 nM | < 6 nM |  |  |  |  | COc1cc2[nH]nc(-c3cnn(C4CC4)c3)c2nc1-c1cccc(C)c1C [Example 67, 3-(1-Cyclopropyl-1H-pyrazol-4-yl)-5-(2,3-dimethylphenyl)-6-methoxy-1H-pyrazolo[4,3-b]pyridine] |
| > 100 nM | < 6 nM |  |  |  |  | COc1cc2[nH]nc(-c3cnn(C4CCN(C(C)=O)CC4)c3)c2nc1-c1cccc(C)c1C [Example 69, 1-(4-(4-(5-(2,3-Dimethylphenyl)-6-methoxy-1H-pyrazolo[4,3-b]pyridin-3-yl)-1H-pyrazol-1-yl)piperidin-1-yl)ethan-1-one] |
| > 100 nM | < 6 nM |  |  |  |  | COC(=O)N1CCC(n2cc(-c3n[nH]c4cc(OC)c(-c5cccc(C)c5C)nc34)cn2)CC1 [Example 70, Methyl 4-(4-(5-(2,3-dimethylphenyl)-6-methoxy-1H-pyrazolo[4,3-b]pyridin-3-yl)-1H-pyrazol-1-yl)piperidine-1-carboxylate] |
| > 100 nM | < 6 nM |  |  |  |  | COC(=O)N1CC(n2cc(-c3n[nH]c4cc(OC)c(-c5cccc(C)c5C)nc34)cn2)C1 [Example 71, Methyl 3-(4-(5-(2,3-dimethylphenyl)-6-methoxy-1H-pyrazolo[4,3-b]pyridin-3-yl)-1H-pyrazol-1-yl)azetidine-1-carboxylate] |
| 40 to 100 nM | < 6 nM |  |  |  |  | COc1cc2[nH]nc(-c3ccc(N4CC[C@H](N(C)C(=O)CO)C4)nc3)c2nc1-c1cccc(C)c1C [Example 88, (S)-N-(1-(5-(5-(2,3-Dimethylphenyl)-6-methoxy-1H-pyrazolo[4,3-b]pyridin-3-yl)pyridin-2-yl)pyrrolidin-3-yl)-2-hydroxy-N-methylacetamide] |
